Measurements published in US20070009961A1, “Identification of targeting component of herbal medicines from simplified HPLC spectrum using after flowing through immobilized receptor (AFTIR) method” (Academia Sinica, priority 2005, published 2007).
Read-outs that look alike come from different tables or passages of the source.

What was measured:
[1] = target: T1, CD28-mulg (extracellular domain of human CD28 fused to murine IgG2a Fc), immobilized on CM5 chip (Homo sapiens, UniProt P10747); assay: Surface plasmon resonance (BIAcore) binding to chip immobilised CD28 / AFTIR
T1 construct: soluble fusion protein consisting of the extracellular (134 aa) domain of human CD28; purchased ID Labs Inc; host or cells: CHO transfectants
Source text: Receptors and proteins. Human CD28-mulg and CD80-mulg fusion proteins were purchased from ID Labs Inc. CD28-mulg is a soluble fusion protein consisting of the extracellular (134 aa) domain of human CD28 fused to murine IgG2a Fc (233 aa). CD80-mulg is a soluble fusion protein consisting of the extracellular (173 aa) domain of human CD80 fused to murine IgG2a Fc (232 aa). Both were purified from tissue culture supernatant of CHO transfectants by protein A and size exclusion chromatography. Anti-human CD28 antibody and anti-human CD3 antibody were purchased from BioLegend. In the experiments, the quantity of anti-CD28 and CD80 used is only around 2% the quantity of CD28 immobilized.
Surface plasmon resonance analysis. BIAcore 3000 (Biacore, Uppsala, Sweden) was employed for real-time biospecific interaction analysis. Binding analysis was performed at 25° C. with a flow rate of 10 μl/min. In general, proteins can be immobilized on the layer of carboxylated dextran in CM5 sensor chip (research grade; Biacore) by amine coupling. With each injection, samples were diluted in the running buffer HBS (10 mM HEPES, pH 7.4, 150 mM NaCl, 3.4 mM EDTA, 0.005% surfactant P20) to a final concentration of 15 to 30 μM. After each injection, flow-cell can be regenerated by flowing though the cell with the buffer containing 50 mM NaOH. Extracts were injected at different concentrations from 1.9 μM to 60 μM. The binding constant between immobilized receptor (imm-CD28) and ligand was determined using BIAevaluation 3.1 software (Biacore).
CD28-mulg, a soluble fusion protein consisting of the extracellular (134 aa) domain of human CD28 fused to murine IgG2a Fc (233 aa), was immobilized to dextran matrix on the sensor chip surface, via covalent coupling of primary amines (—NH2). In this report, the term CD28 will be used as shorthand for CD28-mulg. […]
The RU as shown in FIGS. 5b-5d is the actual RU subtracted by the “background RU”. […] Affinity binding constants (1/KD) can be obtained from KD, where KD is calculated from Scatchard plots. […]

[2] = tested on: CD28 dependent IL-2 expression in Jurkat cells; assay: Jurkat T-cell IL-2 secretion (ELISA), CD28-dependent stimulation (anti-CD3 plus anti-CD28); type: cell-based, human
Protocol: Stimulation of T-cell. Jurkat leukemic T cells were maintained in a humidified atmosphere of 5% CO2/95% air at 37° C. in RPMI-1640 medium (HyClone, Utah, USA) including penicillin, streptomycin and 10% heat-inactivated FBS. Two modes of activations were used for the present experiments: anti-CD3 plus anti-CD28 (CD28-dependent stimulation) and PMA plus ionomycin (CD28-independent stimulation). For experiment of CD28-dependant stimulation, flat-bottom 96-well plates were coated with 10 μg/ml of anti-CD3 for 24 h at 4° C. Wells anti-CD3 were washed twice with PBS. After washing, the unbounded anti-CD3 was removed. Jurkat T-cells (200 μl 2×10^6 cells/ml) with soluble anti-CD28 (1 μg/ml) were then added into the wells. The cells were activated by anti-CD3 already existing in the wells. Upon the activation, the cell solution was stayed for 24 h. The supernatant (100 μl) of cell solution was then used for the measurement of IL-2 by enzyme-linked immuno-sorbent assay (ELISA). For experiment of CD28-indepentant stimulation, 200 μl Jurkat cell (5×10^5 cell/ml) were incubated with PMA (50 nM)/lonomycin (1 μg/ml) for 24 h. 100 μl supernatant was then used for IL-2 measurement by ELISA. […] The culture supernatants in both modes were harvested after 24h incubation and then used for the measurements of IL-2. IL-2 measurement was done using the commercial available ELISA kit (Biosource; California, US). The details how to measure the concentration of IL-2 after T-cell is activated is shown below. IL-2 ELISA assay. IL-2 concentration of T-cell was determined by following the instruction from manufacturer (Biosource; California, US). A 96-well flat-bottom plate was coated with anti-IL-2 mAb (100 μl at 4 μg/ml) in phosphate-buffered saline (PBS; pH 7.3) at room temperature overnight. The plate was then washed with PBS containing 0.05% Tween 20 (PBS-T) three times. Subsequently, the plate was incubated with a blocking solution containing 1% bovine serum albumin in PBS for more than 1 hr. After washing by PBS-T, 100 μl supernatant mixed with biotinylated anti-IL-2 detection antibodies (50 μl at 12.5 ng/ml) was added into each well and stay for 2 hr. After washing, 100 μl streptavidin horseradish peroxidase (1/2000 dilution of a 1.25 mg/ml solution) was added and the solution was incubated for 30 min at room temperature. After washing, 100 μl substrate solution containing 1/1 mixture of H2O2 and tetramethylbenzidine was added and the solution was incubated for 25min at room temperature. The solution reaction involving the stimulated sample was ceased by the addition of 100 μl stop solution (1M H2SO4). Concentration of IL-2 was then measured with microplate reader. The amount of IL-2 was indicated by the relative percentage ([…] of IL-2 is defined as 100%). […]

[3] = tested on: CD28-independent IL-2 response of Jurkat cells; assay: Jurkat T-cell IL-2 secretion (ELISA), CD28-independent stimulation (PMA plus ionomycin); type: cell-based, human
Protocol: Stimulation of T-cell. Jurkat leukemic T cells were maintained in a humidified atmosphere of 5% CO2/95% air at 37° C. in RPMI-1640 medium (HyClone, Utah, USA) including penicillin, streptomycin and 10% heat-inactivated FBS. Two modes of activations were used for the present experiments: anti-CD3 plus anti-CD28 (CD28-dependent stimulation) and PMA plus ionomycin (CD28-independent stimulation). For experiment of CD28-dependant stimulation, flat-bottom 96-well plates were coated with 10 μg/ml of anti-CD3 for 24 h at 4° C. Wells anti-CD3 were washed twice with PBS. After washing, the unbounded anti-CD3 was removed. Jurkat T-cells (200 μl 2×10^6 cells/ml) with soluble anti-CD28 (1 μg/ml) were then added into the wells. The cells were activated by anti-CD3 already existing in the wells. Upon the activation, the cell solution was stayed for 24 h. The supernatant (100 μl) of cell solution was then used for the measurement of IL-2 by enzyme-linked immuno-sorbent assay (ELISA). For experiment of CD28-indepentant stimulation, 200 μl Jurkat cell (5×10^5 cell/ml) were incubated with PMA (50 nM)/lonomycin (1 μg/ml) for 24 h. 100 μl supernatant was then used for IL-2 measurement by ELISA. […] IL-2 concentration of T-cell was determined by following the instruction from manufacturer (Biosource; California, US). […] Concentration of IL-2 was then measured with microplate reader. […]

[4] = target: T2, CD28-mulg, soluble fusion protein consisting of the extracellular (134 aa) domain of human CD28 fused to … (human; murine, UniProt P10747 19-152); assay: SPR, CD28-mulg on CM5 chip
T2 construct: extracellular domain; Bought from ID Labs Inc; purified from CHO transfectant supernatant; Coupled by primary amines to a CM5 sensor chip in all assays; also called imm-CD28; immobilized CD28; not shown: murine IgG2a Fc (233 aa)

Q: Which “ability to bind CD28 (peak in HPLC profile after AFTIR)” value ([1]; bound CEE washed off the chip and profiled with HPLC) does the source give for `O=C(/C=C/c1ccc(O)c(O)c1)O[C@@H]1C[C@](O)(C(=O)O)C[C@@H](O)[C@H]1O` [C1, chlorogenic acid (5-O-caffeoylquinic acid)] here?
A: can bind CD28

Q: And the “effect on IL-2 response (in words)” value [2]?
A: linearly reduces IL-2 response

Q: What about the “effect on IL-2 response (in words)” value ([2]; listed as Chlorogenic acid) of the same molecule?
A: downregulates CD28 dependent interleukin-2 (IL-2) expression

Q: And the “effect on IL-2 response (in words)” value ([2]; listed as chlorogenic acid)?
A: downregulating CD28 dependent IL-2 expression

Q: What about the “downregulation of IL-2 secretion response” value ([2]; normalized to 100%) of the same molecule?
A: −53%

Q: And the “effect on IL-2 response (in words)” value [3]?
A: unable to modulate

Q: Which binding efficiency [1] does the source give for “CD80: soluble fusion protein: extracellular (173 aa) domain of human CD80 fused to murine IgG2a Fc” here?
A: > 90%

Q: And the “binding capacity ΔR on immobilised CD28” value ([1]; SPR, 10 μg/ml ligand)?
A: ~120 RU

B1: CD80-mulg, soluble fusion protein consisting of the extracellular (173 aa) domain of human CD80 fused to murine IgG2a Fc (232 aa) (Fc fusion, UniProt P33681 35-242, looked up)
chain: VIHVTKEVKEVATLSCGHNVSVEELAQTRIYWQKEKKMVLTMMSGDMNIWPEYKNRTIFDITNNLSIVILALRPSDEGTYECVVLKYEKDAFKREHLAEVTLSVKADFPTPSISDFEIPTSNIRRIICSTSGGFPEPHLSWLENGEELNAINTTVSQDPETELYAVSSKLDFNMTTNHSFMCLIKYGHLRVNQTFNWNTTKQEHFPDN
notes: extracellular domain; Bought from ID Labs Inc; purified from CHO transfectant supernatant; Used as the soluble analyte in SPR; also called Human CD80-mulg; not shown: murine IgG2a Fc (232 aa)
Q: With B1 as the molecule, how does the “ratio of binding receptor:ligand (mole:mole)” value [4] read?
A: ~0.92 mole CD80 per mole imm-CD28
